According to patent publication US20100243432A1, “HUMIDIFIER” (priority 2007, published 2010):

Assay: solubility of AgCl calculated from solubility product
Assay type: physicochemical
Conditions: in water
Text: As described above, it can be seen that when the silver ions are eluted through the electrolysis, the sterilization can be more efficiently conducted than when the silver ions are eluted through other methods.

dissolvable AgCl, as a concentration of the silver ions: approximately 1.5 mg/L
Structure (SMILES): [Cl][Ag] [AgCl, silver chloride]
